Where a name gives a salt, the structure may show the parent alone.

The source of these data is patent publication US5807880A, “Azole derivative and pharmaceutical composition thereof” (Yamanouchi Pharmaceutical Co., Ltd., priority 1993, dated 1998).

Assay [1] concerns the target T1, rat steroid 17-20 lyase (Rattus norvegicus, UniProt P11715).
T1 construct: A testis was excised from a ten-week-old male Wistar rat, homogenized and then centrifuged to obtain microsomes; from tissue; host or cells: testicular microsomes of ten-week-old male Wistar rats
T1 sequence (P11715 1-507): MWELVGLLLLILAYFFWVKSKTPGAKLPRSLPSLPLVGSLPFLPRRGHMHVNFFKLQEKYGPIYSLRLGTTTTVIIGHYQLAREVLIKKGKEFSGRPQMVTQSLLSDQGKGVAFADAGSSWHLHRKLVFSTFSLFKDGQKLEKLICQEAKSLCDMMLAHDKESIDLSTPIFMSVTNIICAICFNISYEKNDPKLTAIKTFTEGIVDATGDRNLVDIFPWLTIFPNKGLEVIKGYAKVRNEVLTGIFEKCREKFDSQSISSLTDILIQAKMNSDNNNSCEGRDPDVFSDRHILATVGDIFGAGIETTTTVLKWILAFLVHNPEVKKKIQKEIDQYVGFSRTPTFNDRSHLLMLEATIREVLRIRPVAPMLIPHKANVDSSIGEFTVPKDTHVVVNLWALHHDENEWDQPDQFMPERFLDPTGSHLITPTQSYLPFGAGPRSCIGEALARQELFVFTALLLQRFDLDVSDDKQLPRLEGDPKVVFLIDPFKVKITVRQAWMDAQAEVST
The experiment in a line: Measurement of rat steroid 17-20 lyase inhibiting activity (rat testicular microsomes). It counts as biochemical, rat (male Wistar). The conditions noted are these: 1 μM [1,2-3H]-17α-hydroxyprogesterone, NADPH, pH 7.4, 37° C., 60 minutes, read-out: Concentration of drug to inhibit 50% of steroid 17-20 lyase activity (IC50). As for the experimental part: (1) Measurement of rat steroid 17-20 lyase inhibiting activity
Carried out in accordance with the procedure described in J. Steroid Biochem., Vol.33, No.6, 1191-1195 (1989).
A testis was excised from a ten-week-old male Wistar rat, homogenized and then centrifuged to obtain microsomes. A 50 μg portion of the microsomal protein, 1 μM of [1,2-^3 H]-17α-hydroxyprogesterone (5.55×10^5 dpm) and a test compound were dissolved in 100 μl of 50 mM phosphate buffer (pH 7.4), and the solution was mixed with NADPH solution and incubated at 37° C. for 60 minutes. This was mixed with 400 μl of a mixed solvent of methanol and tetrahydrofuran (2:3) and subjected to centrifugation, and radioactivities of the substrate and products (androstenedione and testosterone) in the resulting supernatant fluid were measured using a high performance liquid chromatography (HPLC) equipped with a radioactive isotope detector to examine activity of the test compound to inhibit steroid 17-20 lyase.
The steroid 17-20 lyase inhibiting activity in rat testicular microsomes was calculated as IC50 value by the method described in the above test method (1), with the results shown in Table 1.

Assay [2] concerns testosterone synthesis. Kind of assay: Measurement of in vivo rat testosterone synthesis inhibiting activity (LH-RH stimulated). Conditions: 1 mg/kg, oral, fasted male Wistar rats; LH-RH 60 ng/rat i.m. 1 h after drug, blood 1 h thereafter; serum testosterone. As for the experimental part: (2) Measurement of in vivo rat testosterone synthesis inhibiting activity
Carried out in accordance with the procedure described in J. Steroid Biochem., Vol.32, No.6, 781-788 (1989).
Each test drug was orally administered to ten-week-old male Wistar rats under fasting. One hour after the drug administration, LH-RH (60 ng/rat) was administered by intramuscular injection to accelerate testosterone synthesis. One hour thereafter, blood was collected by decapitation, and concentration of testosterone in the thus obtained serum was measured by a radioactive isotope assay to calculate testosterone synthesis inhibiting activity.
The in vivo activity to inhibit synthesis of testosterone in rats measured by the above test method (2) was expressed as a testosterone synthesis inhibition ratio (%) to the control group when each test compound or a control compound was administered in a dose of 1 or 10 mg/kg (Table 2).

Consider `CC(c1ccc2c(c1)Cc1ccccc1-2)n1ccnc1` (stereo not shown) [Example 2, 1-[1-(9H-fluoren-2-yl)ethyl]-1H-imidazole hydrochloride], for which the IC50 in assay [1] was 4 nM. Moreover, the “Testosterone synthesis inhibition ratio (to the control group)” value (“Testosterone synthesis inhibition ratio” for short) in assay [2] is on record as 86.3%.
In the case of `CC(C)(c1ccc2c(c1)Cc1ccccc1-2)n1ccnc1` [Example 4, 1-[1-(9H-fluoren-2-yl)-1-methylethyl]-1H-imidazole], in assay [1], the IC50 stood at 5 nM.
Consider `c1ccc2c(c1)Cc1cc(Cn3ccnc3)ccc1-2` [Example 7, 1-[(9H-Fluoren-2-yl)methyl]-1H-imidazole], for which the “Testosterone synthesis inhibition ratio” value in assay [2] was determined as 78.4%.
As to `CC(c1ccc2c(c1)sc1ccccc12)n1ccnc1` (stereo not shown) [Example 8, 1-[1-(Dibenzothiophen-3-yl)ethyl]-1H-imidazole], the IC50 in assay [1] came to 5.7 nM. Besides, in assay [2], the “Testosterone synthesis inhibition ratio” value came to 73.0%.
As for `CC(c1ccc2c(c1)Nc1ccccc1S2)n1ccnc1` (stereo not shown) [Example 10, 2-[1-(1H-Imidazo1-1-yl)ethyl]phenothiazine monooxalate], the IC50 in assay [1] is 6.9 nM.
